This note sets out measurements from patent US6699877B2 (Gruenenthal GmbH, priority 2000, dated 2004).

Assay [1] has as its target T1, glycine binding site of the NMDA receptor channel (Rattus norvegicus, UniProt P35439).
T1 construct: from tissue; host or cells: rat brain cortex and hippocampus membrane homogenate
The experiment in a line: Receptor binding, displacement of (3H)-MDL 105.519 on rat cerebral membrane homogenates. The note with it: 10 μmol/l test substance; 1 nmol/l (3H)-MDL 105.519; read-out: Displacement (%, 10 μmol/l) of radioactive ligand from specific binding. As for the experimental part: Receptor Binding (Glycine Binding Site of the NMDA Receptor Channel)
Experiments to determine the affinity of the compounds according to the invention of Formula I to the glycine binding site of the NMDA receptor channel were carried out on cerebral membrane homogenates (homogenate of Cortex- and Hippocampus-Areal from the brain of male rats, Wistar strain) (B. M. Baron, B. W. Siegel, B. L. Harrison, R. S. Gross, C. and P. Towers, Journal of Pharmacology and Experimental Therapeutics, Vol. 279, p. 62, 1996).
For this purpose, Cortex and Hippocampus from freshly removed rats' brains were dissected, homogenized in 5 mmol/l TRIS-acetate buffer, 0.32 mol/l sacharose pH 7.4 (10 ml/g fresh weight) with a Potter homogenizer (made by Braun/Melsungen, 10 piston strokes at 500 rpm) while cooling with ice and subsequently centrifuged for 10 minutes at 1,000 g and 4° C. The first supernatant material was collected and the sediment homogenized again with […] TRIS-acetate buffer, 0.32 mol/l safcharose pH 7.4 (5 ml/g original fresh weight) using the Potter homogenizer (10 piston strokes at 500 rpm) while cooling with ice and centrifuged for 10 minutes at 1,000 g and 4° C. The resultant supernatant material was combined with the supernatant material from the first centrifugation and centrifuged at 17,000 g for 20 minutes at 4° C. The supernatant material after this centrifugation was discarded, the membrane sediment taken up with 5 mmol/l TRIS-acetate buffer pH 8.0 (20 ml/g original fresh weight) and homogenized with 10 piston strokes at 500 rpm.
The membrane homogenate was then incubated for 1 hour at 4° C. and centrifuged for 30 minutes at 50,000 g and 4° C. The supernatant material was discarded and the centrifuge tube with the membrane sediment sealed with parafilm and frozen for 24 hours at −20° C. The membrane sediment was thawed on the following day, taken up with ice-cold 5 mmol/l TRIS-acetate buffer, 0.1% saponin (w/v) pH 7.0 (10 ml/g original fresh weight), homogenized with 10 piston strokes at 500 rpm and subsequently centrifuged for 20 minutes at 50,00 g and 4° C. The resultant supernatant material was discarded, the sediment taken up in a small volume with 5 mmol/l TRIS-acetate buffer pH 7.0 (about 2 ml/g original fresh weight) and homogenized again with 10 piston strokes at 500 rpm. After determining the protein content, the membrane homogenate was adjusted to a protein concentration of 10 mg protein/ml using 5 mmol/l TRIS-acetate buffer pH 7.0 and frozen in aliquots for testing.
For the receptor binding test, aliquots were thawed, diluted 1:10 with 5 mmol/l TRIS-acetate buffer pH 7.0, homogenized with 10 piston strokes at 500 rpm using the potter homogenizer (10 piston strokes at 500 rpm) while cooling with ice and centrifuged for 60 minutes at 55,000 g at 4° C. The supernatant material was decanted, the membrane sediment adjusted to a protein concentration of 1 mg/ml with ice-cold 50 mmol/l TRIS-acetate buffer pH 7.0, homogenized again with 10 piston strokes at 500 rpm and kept in suspension in the ice bath while stirring on a magnetic stirrer. 100 μl of this membrane homogenate per 1 ml of feedstock was used in each case in the receptor binding test (0.1 mg protein/ml in the final batch).
In the binding test, 50 mmol/l TRIS-acetate buffer pH 7.0 was used as buffer and 1 nmol/l (^3H)-MDL 105.519 (B. M. Baron et al 1996) was used as radioactive ligand. The proportion of unspecific binding was determined in the presence of 1 mmol/l glycine.
In further batches, the compounds according to the invention were added in concentration series and the displacement of the radioactive ligand from its specific binding to the glycine binding site of the NMDA receptor channel determined. The respective triple batches were incubated for 120 minutes at 4° C. and then harvested to determine the radioactive ligands bound to the membrane homogenate by filtration through glass fiber filter mats (GF/B). […]

Assay [2] relates to formalin-induced nociception. Description: Formalin test, rat (second/late phase). The note with it: i.p., 21.5 mg/kg, late phase. The format is in vivo. As for the experimental part:
Experiments to determine the antinociceptive activity of the compounds according to the invention of Formula I were carried out in the formalin test on male rats (Sprague-Dawley, 150-170 g).
In the formalin test, the first (early) phase (0-15 min after formalin injection) was distinguished from the second (late) phase (15-60 min after formalin injection) (D. Dubuisson, S. G. Dennis, Pain 4, 161-174 (1977)). The early phase, as a direct reaction to the formalin injection, represents a model for acute pain while the late phase is considered as a model for persistent (chronic) pain (T. J. Coderre, J. Katz, A. L. Vaccarino, R. Melzack, Pain, Vol. 52, p. 259,1993).
The compounds according to the invention were investigated in the second phase of the formalin test to obtain information about the effects of substances in chronic/inflammatory pain.
A nociceptive reaction was induced in freely moving experimental animals by a single subcutaneous formalin injection (50 μl, 5%) into the dorsal side of the back right paw, the nociceptive reaction being portrayed by the following behavioral parameters: lifting and holding the respective paw (Score 1), shaking and twitching (Score 2), licking and biting (Score 3). The different behavioral patterns triggered by the formalin injection were recorded continuously by observing the animals in the late phase of the formalin test and were weighted differently in an evaluation. Normal behavior in which the animal loads all four paws uniformly was recorded as score 0. The moment of administration prior to the formalin injection was selected according to the method of administration of the compounds according to the invention (intraperitoneal: 15 min, intravenous: 5 min). The described behavioral patterns (Score 1 to 3) in the animals are reduced and possibly even eliminated after injection of substances which have an antinociceptive effect in the formalin test. A comparisom was made with control animals which had received vehicles (solvents) prior to formalin administration. The nociceptive behavior was calculated as a so-called pain rate (PR). The various behavioral parameters received a different weighting (Factor 0, 1, 2, 3). Calculation took place at partial intervals of 3 min according to the following formula:
Substance and vehicle groups include n=10 animals in each case. The effect of the substance was determined as a percentage change versus control on the basis of the PR calculations. The ED50 calculations were made by regression analysis.

Consider `CCOC(=O)C1CC(c2cccc(Cl)c2)c2c(Cl)cc(Cl)cc2N1` (stereo not shown) [Example 34, 5,7-dichloro-4-(3-chlorophenyl)-1,2,3,4-tetrahydroquinoline-2-carboxylic Acid Ethyl Ester], for which the inhibition at 10 µM in assay [1] stood at 32%. Moreover, the “% inhibition of formalin-induced nociception” value in assay [2] turned out to be 53.1%.
For the compound `CCOC(=O)C1CC(c2ccccc2F)c2c(Cl)cc(Cl)cc2N1` (stereo not shown) [Example 26, 5,7-dichloro-4-(2-fluorophenyl)-1,2,3,4-tetrahydroquinoline-2-carboxylic Acid Ethyl Ester], the inhibition at 10 µM in assay [1] was determined as 43%. Also, the “% inhibition of formalin-induced nociception” value in assay [2] was 82.6%.
